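Exposure lasted 48 hours, with cells grown in 96-well plates and compounds tested at five concentrations. Abbreviation: GI50, concentration required for 50% inhibition of growth. TGI denotes the concentration required for complete inhibition of growth.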
Tests used:
Assay in all cases: NCI-60 cell line screen, 48 h
HOP-92 NSCLC = test system: HOP-92 NSCLC
HOP-62 NSCLC = test system: HOP-62 NSCLC
UACC-257 melanoma = test system: UACC-257 melanoma
HS 578T breast = test system: HS 578T breast
OVCAR-4 ovarian = test system: OVCAR-4 ovarian
HCT-15 colon = test system: HCT-15 colon
UACC-62 melanoma = test system: UACC-62 melanoma
UO-31 renal = test system: UO-31 renal
SK-MEL-5 melanoma = test system: SK-MEL-5 melanoma
MDA-MB-468 breast = test system: MDA-MB-468 breast
NCI-H522 lung = test system: NCI-H522 lung
PC-3 prostate = test system: PC-3 prostate
RPMI-8226 leukemia = test system: RPMI-8226 leukemia
CAKI-1 renal = test system: CAKI-1 renal
COLO 205 colon = test system: COLO 205 colon
TK-10 renal = test system: TK-10 renal
NCI-H23 lung = test system: NCI-H23 lung
MOLT-4 leukemia = test system: MOLT-4 leukemia
KM12 colon = test system: KM12 colon
SK-MEL-2 melanoma = test system: SK-MEL-2 melanoma
MDA-MB-435 = test system: MDA-MB-435
SF-539 CNS = test system: SF-539 CNS
NCI/ADR-RES ovarian = test system: NCI/ADR-RES ovarian
A549 NSCLC = test system: A549 NSCLC
HCC-2998 colon = test system: HCC-2998 colon
SK-OV-3 ovarian = test system: SK-OV-3 ovarian
IGROV1 ovarian = test system: IGROV1 ovarian
M14 melanoma = test system: M14 melanoma
A498 renal = test system: A498 renal
SNB-19 CNS = test system: SNB-19 CNS
EKVX NSCLC = test system: EKVX NSCLC
HL-60(TB) leukemia = test system: HL-60(TB) leukemia
NCI-H460 lung = test system: NCI-H460 lung
BT-549 breast = test system: BT-549 breast
LOX IMVI melanoma = test system: LOX IMVI melanoma
OVCAR-8 ovarian = test system: OVCAR-8 ovarian
U251 CNS = test system: U251 CNS
K-562 leukemia = test system: K-562 leukemia
NCI-H226 lung = test system: NCI-H226 lung
SF-295 CNS = test system: SF-295 CNS
DU-145 prostate = test system: DU-145 prostate
SK-MEL-28 melanoma = test system: SK-MEL-28 melanoma
MCF7 breast = test system: MCF7 breast
RXF 393 renal = test system: RXF 393 renal
786-0 renal = test system: 786-0 renal
T-47D breast = test system: T-47D breast
OVCAR-5 ovarian = test system: OVCAR-5 ovarian
SW-620 colon = test system: SW-620 colon
SF-268 CNS = test system: SF-268 CNS
OVCAR-3 ovarian = test system: OVCAR-3 ovarian
SNB-75 CNS = test system: SNB-75 CNS
MDA-MB-231 breast = test system: MDA-MB-231 breast
CCRF-CEM leukemia = test system: CCRF-CEM leukemia
MALME-3M melanoma = test system: MALME-3M melanoma
ACHN renal = test system: ACHN renal
HCT-116 colon = test system: HCT-116 colon
SN12C renal = test system: SN12C renal

COc1ccc(C(=O)/C=C/c2cc(F)cc(C(F)(F)F)c2)cc1S(N)(=O)=O
GI50 (HOP-92 NSCLC): 6.32 µM | TGI (HOP-92 NSCLC): 21.4 µM | GI50 (HOP-62 NSCLC): 7.34 µM | TGI (HOP-62 NSCLC): 22.2 µM | GI50 (UACC-257 melanoma): 11.3 µM | TGI (UACC-257 melanoma): 25.8 µM | GI50 (HS 578T breast): 15.9 µM | TGI (HS 578T breast): 54.9 µM | GI50 (OVCAR-4 ovarian): 5.86 µM | TGI (OVCAR-4 ovarian): 18.7 µM | GI50 (HCT-15 colon): 1.59 µM | TGI (HCT-15 colon): 3.39 µM | GI50 (UACC-62 melanoma): 3.28 µM | TGI (UACC-62 melanoma): 13.6 µM | GI50 (UO-31 renal): 1.94 µM | TGI (UO-31 renal): 5.1 µM | GI50 (SK-MEL-5 melanoma): 5.52 µM | TGI (SK-MEL-5 melanoma): 17.9 µM | GI50 (MDA-MB-468 breast): 1.66 µM | TGI (MDA-MB-468 breast): 3.34 µM | GI50 (NCI-H522 lung): 1.9 µM | TGI (NCI-H522 lung): 3.98 µM | GI50 (PC-3 prostate): 2.48 µM | TGI (PC-3 prostate): 7.3 µM | GI50 (RPMI-8226 leukemia): 2.13 µM | TGI (RPMI-8226 leukemia): 7.47 µM | GI50 (CAKI-1 renal): 4.65 µM | TGI (CAKI-1 renal): 17.7 µM | GI50 (COLO 205 colon): 3.79 µM | TGI (COLO 205 colon): 13.2 µM | GI50 (TK-10 renal): 4.69 µM | TGI (TK-10 renal): 18.5 µM | GI50 (NCI-H23 lung): 2.23 µM | TGI (NCI-H23 lung): 5.48 µM | GI50 (MOLT-4 leukemia): 2.44 µM | TGI (MOLT-4 leukemia): 9.1 µM | GI50 (KM12 colon): 1.96 µM | TGI (KM12 colon): 4.08 µM | GI50 (SK-MEL-2 melanoma): 15.5 µM | TGI (SK-MEL-2 melanoma): 31.2 µM | GI50 (MDA-MB-435): 2.02 µM | TGI (MDA-MB-435): 4.91 µM | GI50 (SF-539 CNS): 1.73 µM | TGI (SF-539 CNS): 3.17 µM | GI50 (NCI/ADR-RES ovarian): 2.16 µM | TGI (NCI/ADR-RES ovarian): 5.44 µM | GI50 (A549 NSCLC): 4.3 µM | TGI (A549 NSCLC): 23.1 µM | GI50 (HCC-2998 colon): 1.98 µM | TGI (HCC-2998 colon): 3.71 µM | GI50 (SK-OV-3 ovarian): 15.7 µM | TGI (SK-OV-3 ovarian): 31.8 µM | GI50 (IGROV1 ovarian): 3.15 µM | TGI (IGROV1 ovarian): 11.6 µM | GI50 (M14 melanoma): 3.14 µM | TGI (M14 melanoma): 11.2 µM | GI50 (A498 renal): 13.9 µM | TGI (A498 renal): 26.8 µM | GI50 (SNB-19 CNS): 3.07 µM | TGI (SNB-19 CNS): 11.3 µM | GI50 (EKVX NSCLC): 5.07 µM | TGI (EKVX NSCLC): 18.3 µM | GI50 (HL-60(TB) leukemia): 2.33 µM | TGI (HL-60(TB) leukemia): 8.4 µM | GI50 (NCI-H460 lung): 3.41 µM | TGI (NCI-H460 lung): 11.8 µM | GI50 (BT-549 breast): 6.4 µM | TGI (BT-549 breast): 19.5 µM | GI50 (LOX IMVI melanoma): 1.42 µM | TGI (LOX IMVI melanoma): 2.72 µM | GI50 (OVCAR-8 ovarian): 3.21 µM | TGI (OVCAR-8 ovarian): 11.4 µM | GI50 (U251 CNS): 1.75 µM | TGI (U251 CNS): 3.79 µM | GI50 (K-562 leukemia): 2.05 µM | TGI (K-562 leukemia): > 100 µM | GI50 (NCI-H226 lung): 8.55 µM | TGI (NCI-H226 lung): 23.6 µM | GI50 (SF-295 CNS): 3.62 µM | TGI (SF-295 CNS): 13.4 µM | GI50 (DU-145 prostate): 12 µM | TGI (DU-145 prostate): 25 µM | GI50 (SK-MEL-28 melanoma): 2.63 µM | TGI (SK-MEL-28 melanoma): 7.2 µM | GI50 (MCF7 breast): 1.69 µM | TGI (MCF7 breast): 4.42 µM | GI50 (RXF 393 renal): 3.97 µM | TGI (RXF 393 renal): 16.1 µM | GI50 (786-0 renal): 1.84 µM | TGI (786-0 renal): 3.79 µM | GI50 (T-47D breast): 11 µM | TGI (T-47D breast): 25.8 µM | GI50 (OVCAR-5 ovarian): 7.88 µM | TGI (OVCAR-5 ovarian): 20.6 µM | GI50 (SW-620 colon): 1.81 µM | TGI (SW-620 colon): 3.55 µM | GI50 (SF-268 CNS): 12 µM | TGI (SF-268 CNS): 43.3 µM | GI50 (OVCAR-3 ovarian): 3.62 µM | TGI (OVCAR-3 ovarian): 11.9 µM | GI50 (SNB-75 CNS): 2.45 µM | TGI (SNB-75 CNS): 13.2 µM | GI50 (MDA-MB-231 breast): 2.06 µM | TGI (MDA-MB-231 breast): 4.81 µM | GI50 (CCRF-CEM leukemia): 1.5 µM | TGI (CCRF-CEM leukemia): 6.79 µM | GI50 (MALME-3M melanoma): 12.1 µM | TGI (MALME-3M melanoma): 24.7 µM | GI50 (ACHN renal): 1.72 µM | TGI (ACHN renal): 3.28 µM | GI50 (HCT-116 colon): 1.58 µM | TGI (HCT-116 colon): 3.39 µM | GI50 (SN12C renal): 1.88 µM | TGI (SN12C renal): 4.59 µM
